Several values for one entry are separate records, joined by “and”; a condition that tells them apart may be missing. Equal values may be shown once.
Experiments:
[1] = system: melanoma bearing Balb/c mice; assay: Melanoma tumor bearing mice, tumor volume and survival after TBI; type: in vivo, mouse
Experimental: EAT and B16F10 melanoma cell line were harvested and 10×10^6 and 0.8×10^6 cells respectively were injected subcutaneously in the Balb/c mice (n=24) on the right thigh. When tumors reached 0.5 cm^3 in volume, animals were randomized and divided into 4 different groups. The first test group was treated with 50 mg/kg, i.v. DMA, second test group subjected to 8 Gy TBI. Third group received 50 mg/kg, i.v. DMA and 8 Gy TBI both. The control group was similarly administered normal saline (0.1 ml, i.v.). On every alternate days, tumor-bearing thigh of each animal was shaved, and the longest (1) and shortest diameter (b) of the tumors along with height (h) were measured with the help of a vernier calliper. Tumor weight of each animal was calculated using the formula l*b*h/2.

[2] = system: Balb/c intestinal cells; assay: Cell proliferation by BrdU labeling, flow cytometry; type: in vivo, mouse
Experimental: S phase cells were labeled in vivo by administering BrdU (i.p., 100 mg/kg) to each mouse 2 h before euthanasia. Mice were euthanized 3 days after irradiation and small intestine was rapidly dissected, chopped into homogeneous solution by straining with 70μ strainer and fixed in 70% ethanol. Cells stained with 0.5 mL of RNase (2 mg/mL) and 0.5 mL of propidium iodide (0.1% in 0.6% Triton X-100 in PBS) for 30 min in dark. Samples were then analysed on a FACS Calibur flow-cytometer (Becton Dickinson).

[3] = system: Akt in MRC5 and A549 cells; assay: Akt kinase assay in cell lines; type: cell-based, human; details: DMA+Radiation vs control and radiation
Experimental: Akt kinase activity was determined using Akt Kinase Assay Kit (Nonradioactive) (Cell Signaling Technology, Cat. #9840) following the manufacturer's instructions.

[4] = system: Balb/c mice intestine tissue; assay: Gene expression at mRNA level by RT-PCR; type: in vivo, mouse
Experimental: The cDNA generated from total RNA was amplified using 1 μl of the reaction products in 10 μl with respective primers for 45 cycles following standard RT-PCR cycle by SYBR green dye. Transcript levels were calculated according to the 2^−ΔΔCt method, normalized to the expression of GAPDH, and expressed as fold change compared with control.

[5] = in vivo (earlier work, Nimesh et al., 2015); cited from earlier work
[6] = system: MRC5 cells; assay: Clonogenic survival, DMF; type: cell-based, human; details: MRC5, 50 μM DMA 2 h before radiation
Experimental: (§1) Exponentially growing U87, HEK293, MRC5 and A549 cells were treated with 50 μM DMA for 2 h and irradiated with 0, 1, 2, 5, 8 and 10 Gy of radiation dose as indicated at RT and trypsinized immediately at 37° C. Cells were seeded into 60 mm dishes in triplicate at various cell densities aiming approximately 100 colonies/dish. Percentage radioprotection was calculated by following formula % of Protection in radiation treated cells=(SFDMA+radiaion)−(SFRadiaion)/SFControl×100 Where SF is survival fraction in respective conditions. Dose modification factor (DMF) was calculated as ratio of 50% survival in DMA+radiation to 50% survival in radiation only.

[7] = system: U87 cells; assay: Clonogenic survival, DMF; type: cell-based, human; details: U87, 50 μM DMA 2 h before radiation
Experimental: as §1

[8] = system: A549 cells; assay: Clonogenic survival, DMF; type: cell-based, human; details: A549, 50 μM DMA 2 h before radiation
Experimental: as §1

[9] = system: HEK293 cells; assay: Clonogenic survival, DMF; type: cell-based, human; details: HEK293, 50 μM DMA 2 h before radiation
Experimental: as §1

[10] = system: melanoma bearing Balb/c mice; details: 300 mg/kg oral (Nimesh et al. 2015); cited from earlier work
[11] = system: Balb/c mice liver tissue; assay: Biochemical estimations of antioxidant enzymes, thiols and lipid peroxidation in liver; type: in vivo, mouse; parameters: MDA level in hepatic tissues / Reduced glutathione (GSH) level in liver / GST level / GST content / SOD activity / SOD level / Total thiol contents in liver homogenates: unit not given here
Experimental: Mice hepatic tissues were homogenised using REMI homogenizer in phosphate buffer and centrifuged at 10,000×g for 15 min and aliquots of supernatant were separated. The supernatant was used for the biochemical estimations using standard spectrophotometric reported methods. The total protein was determined by the Lowry method.
The liver supernatant was incubated for 10 min and the absorbance was measured at 412 nm and total thiol content was calculated by standard method. The amount of MDA was done by reaction with thiobarbituric acid (TBA) at 532 nm by literature method.
Glutathione was measured according to the Ellman's method.
Superoxide dismutase (SOD) activity was assayed according to the Marklund and Marklund method. The activity of GST was determined by using CDNB as the substrate. The reaction mixture contained 1 mM of CDNB, 1 mM GSH in 0.1M phosphate buffer (pH 6.5). The formation of the GSH-CDNB conjugate was determined at 340 nm and the activity was calculated by using e=9.6 mM-1 cm-1.

[12] = DMA pre-treated to radiation group

COc1ccc(-c2nc3cc(-c4nc5cc(N6CCN(C)CC6)ccc5[nH]4)ccc3[nH]2)cc1OC [DMA, 5-(4-methylpiperazin-1-yl)-2-[2′-(3,4-dimethoxyphenyl)-5′-benzimidazolyl]benzimidazole]
Survival of melanoma bearing Balb/c mice ([1]; 50 mg/kg i.v. 2 h before 8Gy TBI): 50%
Radioprotection of tumor tissues ([1]; 50 mg/kg, 2 h before irradiation, melanoma model): less radioprotection
Active S-phase cells in intestine ([2]; 50 mg/kg i.v. pretreatment, 8Gy TBI): 11%
Cell proliferation in intestine tissue ([2]; DMA treated vs control): same
Akt kinase activity [3]: higher Akt kinase activity
Akt mRNA expression ([4]; DMA 50 mg/kg i.v. + 8Gy TBI vs control): higher expression
Bax, Bcl-2 and p21 mRNA expression level ([4]; DMA by itself): did not increase
Gadd45α mRNA expression ([4]; DMA by itself): significantly increased
Bax gene expression [4, 12]: no significant downregulation
Bcl-2 mRNA level [4, 12]: insignificant increase
p21 mRNA expression ([4]; DMA pretreatment 50 mg/kg i.v. to radiation vs radiation): significantly downregulated
Gadd45α mRNA expression ([4]; DMA pretreatment to radiation): augmented
Maximum tolerated dose (MTD), no toxicity in vivo [5]: 2000 mg/kg
DMF at 50% survival [6]: 1.1
DMF at 50% survival [7]: 1.067 and 1.07
DMF at 50% survival [8]: 1.38
DMF at 50% survival [9]: 1.44
Protection of tumor tissues [10]: no protection to tumor tissues
Glutathione reductase activity ([11]; DMA 2 h prior to irradiation vs irradiated group): significant decrease
SOD activity ([11]; DMA only): 16.96±1.35
GST level ([11]; DMA only, 200 mg/kg oral): 2.76±0.32
MDA level in hepatic tissues ([11]; DMA only, 200 mg/kg oral): 0.19±0.06
Reduced glutathione (GSH) level in liver ([11]; DMA only, 200 mg/kg oral): 5.07±0.09
Reduced glutathione (GSH) level in liver ([11]; DMA pre-treatment + 8Gy TBI): 3.73±0.69
MDA level in hepatic tissues ([11]; DMA pre-treatment + 8Gy TBI, 24 h post-irradiation): 0.20±0.04
Total thiol contents in liver homogenates ([11]; DMA pre-treatment + TBI): 0.91±0.08
SOD level ([11]; DMA pre-treatment to radiation (8Gy)): 15.50±0.60
GST content ([11]; DMA prior to radiation): 2.78±0.25
